The record followed here is paper PMC10343752, “Anti-α-Glucosidase, SAR Analysis, and Mechanism Investigation of Indolo[1,2-b]isoquinoline Derivatives” (Molecules, 2023).

SMILES strings stand for the structures.

Data set [1] addresses T1, α-glucosidase from Saccharomyces cerevisiae (Saccharomyces cerevisiae, UniProt P53341).
T1 construct: purchased Sigma-Aldrich
In words: biochemical. It is filed as biochemical. The conditions noted are these: for IC50: α-glucosidase 0.1 U/mL, PNPG 0.25 mM, pH 6.8, 37 °C, read-out: α-Glucosidase inhibitory activity IC50. Here is the method:
(§1) α-Glucosidase from Saccharomyces cerevisiae (EC 3.2.1.20) was purchased from Sigma-Aldrich. p-Nitrophenyl-α-D-[…] (PNPG) was obtained from Abcam. Other reagents were commercially available.
After the addition of PNPG (0.25 mM), the change in absorbance was measured at 405 nm. […] All experiments were performed four times.

The test system of data set [2] is hepatocytes LO2 cells. In words: In vitro cytotoxicity, MTT method. It is filed as cell-based. The conditions noted are these: 24 h, up to a concentration of 32 μM. The protocol:
The in vitro cytotoxicity of compounds 9, 11, 13, 18, and 19 against hepatocytes LO2 cells was detected using the MTT method.
The in vitro cytotoxicity of compound 11 against hepatocytes LO2 cells was assayed using the MTT method. LO2 cells were cultured in DMEM containing 10% FBS, 100 IU/mL penicillin, and 100 IU/mL streptomycin at 37 °C under 5% CO2. An amount of 100 μL of LO2 cells was seeded into a 96-well plate (5000 per well) for 24 h, and was then treated with compounds 9, 11, 13, 18, and 19 for 24 h, respectively. Then, MTT solution was added into each well and incubated for 4 h. An amount of […] of DMSO was used to dissolve the obtained crystallization. Then, this absorbance was determined at 490 nm. Each sample was performed in triplicate.
A general note: Tetrazolium assays rely on reduction of a dye to a coloured formazan, in cell work by metabolically active cells.

The target in data set [3] is T2, α-glucosidase (Saccharomyces cerevisiae, UniProt P53341).
T2 construct: purchased Sigma-Aldrich
T2 sequence (P53341 whole entry): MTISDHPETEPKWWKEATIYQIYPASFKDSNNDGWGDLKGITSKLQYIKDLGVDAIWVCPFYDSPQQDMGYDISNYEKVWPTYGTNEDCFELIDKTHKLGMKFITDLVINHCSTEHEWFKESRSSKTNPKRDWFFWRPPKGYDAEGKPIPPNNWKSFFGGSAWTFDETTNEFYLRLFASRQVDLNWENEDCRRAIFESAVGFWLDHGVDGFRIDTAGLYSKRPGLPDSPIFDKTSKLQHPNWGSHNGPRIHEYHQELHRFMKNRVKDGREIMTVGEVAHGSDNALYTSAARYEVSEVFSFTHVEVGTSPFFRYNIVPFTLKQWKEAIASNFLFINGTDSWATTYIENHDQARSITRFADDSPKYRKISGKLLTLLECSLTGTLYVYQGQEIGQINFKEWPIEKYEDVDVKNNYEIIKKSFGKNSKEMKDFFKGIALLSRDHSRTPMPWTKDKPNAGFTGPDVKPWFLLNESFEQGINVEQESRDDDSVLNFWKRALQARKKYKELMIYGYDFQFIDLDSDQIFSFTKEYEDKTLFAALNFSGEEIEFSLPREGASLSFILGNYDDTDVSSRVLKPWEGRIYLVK
Description: CD spectra, secondary structure contents of α-glucosidase. It is filed as binding. Conditions: for effect on CD band intensity of α-glucosidase: 190~280 nm.
Text: CD spectra were also monitored to study the effect of compounds 9, 11, 13, 18, and 19 on the conformational changes of α-glucosidase. As shown in Figure 7a–e, α-glucosidase presented two negative CD bands in the region of 190~280 nm, which was owed to the electronic transitions of n→π* of α-helical bonds. […] While treatment of compounds 9, 13, 18, and 19 led to an increase of α-helix and a reduction of β-sheet, β-turn, and random coils, respectively (Table 3). CD spectra have been an important method by which to study protein structural changes and secondary structural content. Previous research has shown that the interaction of an inhibitor with α-glucosidase caused the partial folding and loosening of the α-glucosidase structure.
as §1
Compounds 9, 11, 13, 18, and 19 with different concentrations were added into α-glucosidase solution (31 μM) and incubated for 5 min, respectively, then the CD spectra of the mixture were recorded. CDNN was used to analyze the ratio of protein secondary conformations.

The target of data set [4] is T2, α-glucosidase. In words: α-glucosidase inhibition kinetics (enzyme kinetics and Lineweaver-Burk substrate kinetics). The conditions noted are these: for inhibition type (substrate kinetics): Lineweaver-Burk plots; for Ki / Kis / Vmax: inhibition kinetics constant; for reversibility of inhibition (enzyme kinetics): plots of remaining enzyme activity versus enzyme concentration. It is filed as biochemical.
Text: Compounds 9, 11, 13, 18, and 19 with different α-glucosidase inhibitory activity were selected as representative compounds to reveal the inhibition mechanism of indolo[1,2-b]isoquinoline derivatives (1–21) on α-glucosidase by the implementation of an inhibition kinetics study. […] For substrate kinetics (Figure 5b,d,f,h,j), the Lineweaver-Burk plots of remaining enzyme activity versus […] treated with compounds 9, 11, 13, 18, and 19 intersected at one point in the second quadrant, respectively. The inhibition kinetics study was an effective method by which to understand the inhibition mechanism of the inhibitor against the target protein. In a substrate kinetics study, different inhibition mechanisms of inhibitors manifested as different intersection positions of Lineweaver-Burk plots. […] Moreover, compounds 9, 11, 13, 18, and 19 bind with both free enzyme and enzyme-substrate complexes to inhibit α-glucosidase. The inhibition kinetics constants of compounds 9, 11, 13, 18, and 19 were obtained and are listed in Table 2, including Ki, Kis, Km, and Vmax values, which might be helpful to understand the inhibition mechanism.
as §1
The kinetics of enzyme inhibition for compounds 9, 11, 13, 18, and 19 were obtained by plotting the enzymatic reaction rate versus enzyme concentration with or without compounds 9, 11, 13, 18, and 19, and the kinetics of substrate inhibition were measured using Lineweaver Burk plots of the enzymatic reaction rate versus substrate concentration with or without compounds 9, 11, 13, 18, and 19 [37, 38, 39, 40].

The target of data set [5] is T2, α-glucosidase. Description: 3D fluorescence spectra of α-glucosidase with compounds. Conditions: α-glucosidase 5 μM. It is filed as binding.
Text: The 3D fluorescence spectra of α-glucosidase with compounds 9, 11, 13, 18, and 19 was investigated to analyze the effect of compounds on the structure of α-glucosidase, respectively. Two important characteristic peaks appeared in the 3D fluorescence spectra of α-glucosidase (Figure 6a,c,e,g,i), including Peak 1 ([…]), corresponding to the main chain structure of the polypeptide, and Peak 2 ([…]), corresponding to tyrosine and tryptophan residues. […] (Figure 6b,d,f,h,j). Previously, 3D fluorescence spectra have been used to determine protein conformation changes.
as §1
Compounds 9, 11, 13, 18, and 19 were added to α-glucosidase (5 μM) in 100 μL of PBS and incubated for 5 min, then the 3D fluorescence spectra of the mixture were recorded [32]^. The excitation and emission wavelengths were 200–500 nm and the slit width was 2.5 nm. All data were imported into Matlab for processing.

The mark [6] stands for this setting: molar ratio [α-Glu]:[Comp.] 1:1.
The mark [7] stands for this setting: molar ratio [α-Glu]:[Comp.] 1:2.
[8] abbreviates: molar ratio [α-Glu]:[Comp.] 1:3.

T1 sequence (P53341 whole entry): as above

A word on the IC50: it is the concentration at which inhibition is half-maximal. For the compound `O=C1c2ccccc2-n2c1c(-c1ccccc1)c1ccccc1c2=O` [Compound 1], in data set [1], the IC50 is 23.46 ± 0.23 µM.
Turning to `Cc1ccc(-c2c3n(c(=O)c4ccccc24)-c2ccccc2C3=O)cc1` [Compound 2], the IC50 in data set [1] was determined as 17.4 ± 0.25 µM.
Consider `Cc1cccc(-c2c3n(c(=O)c4ccccc24)-c2ccccc2C3=O)c1` [Compound 3], for which the IC50 in data set [1] was found to be 9.25 ± 0.14 µM.
Regarding `Cc1ccccc1-c1c2n(c(=O)c3ccccc13)-c1ccccc1C2=O` [Compound 4], in data set [1], the IC50 came to 22.3 ± 0.63 µM.
On the same count and under the same terms, the figure for `CCc1ccc(-c2c3n(c(=O)c4ccccc24)-c2ccccc2C3=O)cc1` [Compound 5] is 16.1 ± 0.46 µM; for `CC(C)(C)c1ccc(-c2c3n(c(=O)c4ccccc24)-c2ccccc2C3=O)cc1` [Compound 6] it is 5.76 ± 0.26 µM; for `O=C1c2ccccc2-n2c1c(-c1ccc(Cl)cc1)c1ccccc1c2=O` [Compound 7] it is 14.7 ± 0.37 µM.
For `COc1ccc(-c2c3n(c(=O)c4ccccc24)-c2ccccc2C3=O)cc1` [Compound 8], the IC50 in data set [1] was found to be 15.1 ± 0.44 µM.
One may read the Ki as the equilibrium dissociation constant of an inhibitor or competing ligand from its target. A lower Ki goes with tighter binding. Broadly, the Vmax is the top rate of the reaction or transport when substrate is in excess. In the case of `CN(C)c1ccc(-c2c3n(c(=O)c4ccccc24)-c2ccccc2C3=O)cc1` [Compound 9], the “effect on cell viability” value in data set [2] was “no significant effect on cell viability”. The IC50 in data set [1] was 40.9 ± 0.69 µM. For the same compound, in data set [3], the “effect on CD band intensity of α-glucosidase” value (“effect on CD band intensity” below) is reported as “decrease in CD band intensity”. In addition, in data set [3] (setting [6]), the “Rndm Coil” value was determined as 35.10%, the α-Helix stood at 10.80%, the β-Sheet was found to be 35.60% and the β-Turn is listed as 19.30%. In data set [3] (setting [7]), the “Rndm Coil” value is 34.60%, the α-Helix worked out at 13.00%, the β-Sheet is on record as 31.90% and the β-Turn came out at 19.30%. Also, in data set [3] (setting [8]), the “Rndm Coil” value is recorded as 33.40%, the α-Helix is on record as 13.10%, the β-Sheet was determined as 31.70% and the β-Turn stood at 19.10%. Moreover, in data set [4], the “inhibition type (substrate kinetics)” value is “mixed-type inhibition”; the affinity, expressed as Ki, was 30.5 µM; the Kis is 96.19 µM; the Vmax was 0.12 µM/min/mg. In addition, in data set [4], the “reversibility of inhibition (enzyme kinetics)” value (“reversibility of inhibition” for short) was “reversible”. For the same compound, the “effect on fluorescence intensity of Peak 1 and Peak 2 of α-glucosidase” value (“effect on fluorescence intensity” below) in data set [5] was “decrease the fluorescence intensity”.
`O=C1c2ccccc2-n2c1c(-c1ccccc1Cl)c1ccccc1c2=O` [Compound 10]: in data set [1], the IC50 was 12.2 ± 0.46 µM.
Take `O=C1c2ccccc2-n2c1c(-c1ccc3ccccc3c1)c1ccccc1c2=O` [Compound 11]: in data set [2], the “effect on cell viability” value is reported as “no significant effect on cell viability”. Also, in data set [1], the “anti-α-glucosidase activity, times stronger than acarbose” value is ~ 186 times and the IC50 is 3.44 ± 0.36 µM. The “effect on CD band intensity” value in data set [3] is recorded as “concentration-dependent increase in the CD band intensity”. Also, in data set [3] (setting [6]), the “Rndm Coil” value is given as 35.60%, the α-Helix amounted to 8.40%, the β-Sheet was determined as 34.30% and the β-Turn came to 20.00%. In addition, in data set [3] (setting [7]), the “Rndm Coil” value stood at 35.60%, the α-Helix is 8.20%, the β-Sheet worked out at 34.70% and the β-Turn is given as 20.00%. Moreover, in data set [3] (setting [8]), the “Rndm Coil” value is 35.80%, the α-Helix is 7.80%, the β-Sheet came to 35.20% and the β-Turn stood at 20.10%. Besides, in data set [4], the “inhibition type (substrate kinetics)” value is “mixed-type inhibition”, the Ki was 0.46 µM, the Kis was 14.57 µM and the Vmax stood at 0.06 µM/min/mg. In data set [4], the “reversibility of inhibition” value is “reversible”. In addition, the “effect on fluorescence intensity” value in data set [5] is “decrease the fluorescence intensity”.
With `COC(=O)c1ccc(-c2c3n(c(=O)c4ccccc24)-c2ccccc2C3=O)cc1` [Compound 12], the IC50 in data set [1] turned out to be 32.8 ± 0.72 µM.
Turning to `O=C1c2cc(Cl)ccc2-n2c1c(-c1ccccc1)c1ccccc1c2=O` [Compound 13], the “effect on cell viability” value in data set [2] is “no significant effect on cell viability”. For the same compound, the IC50 in data set [1] amounted to 6.35 ± 0.25 µM. Also, the “effect on CD band intensity” value in data set [3] is reported as “decrease in CD band intensity”. In data set [3] (setting [6]), the “Rndm Coil” value is 35.60%, the α-Helix is reported as 8.80%, the β-Sheet was 40.60% and the β-Turn is given as 19.30%. For the same compound, in data set [3] (setting [7]), the “Rndm Coil” value stood at 35.40%, the α-Helix was 9.10%, the β-Sheet was 39.60% and the β-Turn was determined as 19.40%. For the same compound, in data set [3] (setting [8]), the “Rndm Coil” value was 35.10%, the α-Helix turned out to be 11.20%, the β-Sheet was 34.60% and the β-Turn turned out to be 19.60%. In data set [4], the “inhibition type (substrate kinetics)” value is “mixed-type inhibition”, the Ki worked out at 3.62 µM, the Kis was 11.65 µM and the maximum rate (Vmax) was found to be 0.08 µM/min/mg. Also, the “reversibility of inhibition” value in data set [4] was “reversible”. In addition, the “effect on fluorescence intensity” value in data set [5] was “decrease the fluorescence intensity”.
For `Cc1ccc2c(c1)-n1c(c(-c3ccccc3)c3ccccc3c1=O)C2=O` [Compound 14], the IC50 in data set [1] turned out to be 17 ± 0.37 µM.
Same read-out and setting: the figure for `O=C1c2ccc(Cl)cc2-n2c1c(-c1ccccc1)c1ccccc1c2=O` [Compound 15] is 9.25 ± 0.41 µM.
Turning to `O=C1c2cc(F)ccc2-n2c1c(-c1ccccc1)c1ccccc1c2=O` [Compound 16], in data set [1], the IC50 stood at 10.1 ± 0.36 µM.
`Cc1ccc2c(=O)n3c(c(-c4ccccc4)c2c1)C(=O)c1ccccc1-3` [Compound 17]: in data set [1], the IC50 turned out to be 7.95 ± 0.43 µM.
As for `Cc1ccc2c(=O)n3c(c(-c4ccccc4)c2c1)C(=O)c1cc(F)ccc1-3` [Compound 20], in data set [1], the IC50 stood at 11.9 ± 0.36 µM.
